Data set [1] has as its system Rattus norvegicus. The data set is described as follows: Antiobese activity in high fat diet-fed Sprague-Dawley rat assessed as plasma total cholesterol level at 50 mg/kg, ig administered QD for 30 days (reference value: 1.86+/-0.31 mmol/L). The data set is classed as functional. The settings on record: route intragastric.
The subject of data set [2] is Rattus norvegicus. The data set is described as follows: Antiobese activity in high fat diet-fed Sprague-Dawley rat assessed as body weight at 50 mg/kg, ig administered QD for 30 days (reference value: 355+/-36 g). The data set is classed as functional. The settings on record: route intragastric.
Data set [3] has as its system Rattus norvegicus. The data set is described as follows: Antiobese activity in high fat diet-fed Sprague-Dawley rat assessed as plasma free fatty acid level at 50 mg/kg, ig administered QD for 30 days (reference value: 785.6+/-175.8 umol/L). The data set is classed as functional. The settings on record: route intragastric.
Data set [4] deals with Rattus norvegicus. Briefly: Antiobese activity in high fat diet-fed Sprague-Dawley rat assessed as plasma triglyceride level at 50 mg/kg, ig administered QD for 30 days (reference value: 1.25+/-0.23 mmol/L). The data set is classed as functional. The settings on record: route intragastric.
Data set [5] deals with Rattus norvegicus. The data set is described as follows: Antiobese activity in high fat diet-fed Sprague-Dawley rat assessed as body fat mass measured per 100 g of body weight at 50 mg/kg, ig administered QD for 30 days (reference value: 6.4+/-1.4 g/100 g). It counts as functional. The settings on record: route intragastric.
The subject of data set [6] is 3T3-L1. Briefly: Increase in PPARgamma mRNA levels in mouse 3T3L1 cells at 100 umol/L by RT-PCR. It counts as functional, cell-based.
Data set [7] concerns 3T3-L1. Briefly: Inhibition of mouse 3T3L1 cells differentiation after 48 hrs by oil-red-O staining. It counts as functional, cell-based.
The subject of data set [8] is 3T3-L1. Briefly: Decrease in triglyceride content in mouse 3T3L1 cells assessed as reduction of lipid droplets after 48 hrs by oil-red-O staining. It counts as functional, cell-based.
Data set [9] deals with Mus musculus. The data set is described as follows: Hypolipidemic activity in high fat diet-fed C57BL/6 mouse assessed as decrease in plasma total cholesterol level at 50 mg/kg, ig administered QD for 4 weeks. It counts as functional, organism-based. Also noted: dose 50 mg/kg.
Data set [10] has as its system Mus musculus. Briefly: Reduction in plasma insulin level in high fat diet-fed C57BL/6 mouse at 50 mg/kg, ig administered QD for 4 weeks. It counts as functional, organism-based. Also noted: dose 50 mg/kg.
Data set [11] can be described thus: Acute toxicity in ig dosed KM mouse by Bliss method. The settings on record: in vivo, po. It counts as organism-based.
For data set [12], the system named is Mus musculus. Briefly: Hypolipidemic activity in high fat diet-fed C57BL/6 mouse assessed as increase in plasma HDL level at 50 mg/kg, ig administered QD for 4 weeks. Also noted: dose 50 mg/kg. The data set is classed as functional, organism-based.
Data set [13] relates to 3T3-L1. The data set is described as follows: Inhibition of mouse 3T3L1 cells differentiation assessed as morphological changes after 48 hrs by oil-red-O staining. It counts as functional, cell-based.
Data set [14] concerns 3T3-L1. Briefly: Antiproliferative activity against mouse 3T3L1 cells after 48 hrs by MTT assay. It counts as functional, cell-based. On the technique in general: Tetrazolium dyes change colour on reduction, which living cells bring about.
For data set [15], the system named is Mus musculus. The data set is described as follows: Hypolipidemic activity in high fat diet-fed C57BL/6 mouse assessed as decrease in plasma LDL level at 50 mg/kg, ig administered QD for 4 weeks. It counts as functional, organism-based. Also noted: dose 50 mg/kg.
Data set [16] deals with Mus musculus. The data set is described as follows: Hypolipidemic activity in high fat diet-fed C57BL/6 mouse assessed as decrease in plasma triglyceride level at 50 mg/kg, ig administered QD for 4 weeks. It counts as functional, organism-based. Also noted: dose 50 mg/kg.
In data set [17] the test system is Mus musculus. Briefly: Hypolipidemic activity in high fat diet-fed C57BL/6 mouse assessed as decrease in plasma LDL level at 200 mg/kg, ig administered QD for 4 weeks. The data set is classed as functional, organism-based. Details: dose 200 mg/kg.
Data set [18] has as its system Mus musculus. The data set is described as follows: Hypolipidemic activity in high fat diet-fed C57BL/6 mouse assessed as decrease in plasma triglyceride level at 200 mg/kg, ig administered QD for 4 weeks. Also noted: dose 200 mg/kg. The data set is classed as functional, organism-based.
The test system of data set [19] is Mus musculus. Briefly: Hypolipidemic activity in high fat diet-fed C57BL/6 mouse assessed as increase in plasma HDL level at 200 mg/kg, ig administered QD for 4 weeks. It counts as functional, organism-based. Also noted: dose 200 mg/kg.
Data set [20] has as its system Mus musculus. The data set is described as follows: Hypolipidemic activity in high fat diet-fed C57BL/6 mouse assessed as decrease in plasma total cholesterol level at 200 mg/kg, ig administered QD for 4 weeks. The data set is classed as functional, organism-based. Also noted: dose 200 mg/kg.
For data set [21], the system named is Rattus norvegicus. Briefly: Antiobese activity in high fat diet-fed Sprague-Dawley rat assessed as body fat mass measured per 100 g of body weight at 10 mg/kg, ig administered QD for 30 days (reference value: 6.4+/-1.4 g/100 g). The settings on record: route intragastric. It counts as functional.
Data set [22] relates to Rattus norvegicus. The data set is described as follows: Antiobese activity in high fat diet-fed Sprague-Dawley rat assessed as plasma free fatty acid level at 10 mg/kg, ig administered QD for 30 days (reference value: 785.6+/-175.8 umol/L). It counts as functional. The settings on record: route intragastric.
In data set [23] the test system is Rattus norvegicus. The data set is described as follows: Antiobese activity in high fat diet-fed Sprague-Dawley rat assessed as body weight at 10 mg/kg, ig administered QD for 30 days (reference value: 355+/-36 g). It counts as functional. The settings on record: route intragastric.
The test system of data set [24] is Rattus norvegicus. The data set is described as follows: Antiobese activity in high fat diet-fed Sprague-Dawley rat assessed as plasma total cholesterol level at 10 mg/kg, ig administered QD for 30 days (reference value: 1.86+/-0.31 mmol/L). The settings on record: route intragastric. The data set is classed as functional.
In data set [25] the test system is Rattus norvegicus. Briefly: Antiobese activity in high fat diet-fed Sprague-Dawley rat assessed as plasma triglyceride level at 10 mg/kg, ig administered QD for 30 days (reference value: 1.25+/-0.23 mmol/L). The settings on record: route intragastric. The data set is classed as functional.

We go through 11 molecules from ChEMBL document CHEMBL1158592, “Synthesis and biological evaluation of isoflavone fatty acid esters with potential weight loss and hypolipidemic activities” (Bioorg Med Chem, 2010).

As usually defined, the LD50 is the dose expected to kill half of the subjects tested. Read a low LD50 as a more toxic substance.

Active and inactive are the calls of the source. The calls are words filed in the database; no cut-off is given here.

As to `CCCCC/C=C\C/C=C\CCCCCCCC(=O)Oc1ccc(-c2coc3cc(OC)ccc3c2=O)cc1`, the Activity amounted to 1.67 mmol/L in [1]; 318 g in data set [2]; 658.8 µmol/L in [3]; 1.03 mmol/L in data set [4]; 5.1 g/100 g body weight in [5].
For `COc1ccc(-c2coc3cc(O)ccc3c2=O)cc1`, the result in data set [6] was Active.
In the case of `CCCCCCCCCCCCCCCCCC(=O)Oc1ccc2c(=O)c(-c3ccc(OC)cc3)coc2c1`, the Activity in data set [1] came to 1.57 mmol/L; in [2], 320 g; in [3], 730.2 µmol/L; in [4] it was 1.19 mmol/L; in data set [5], 5.4 g/100 g body weight. Also, the result in data set [6] was inactive. Further, the inhibition entry in [7] was “Active”. The outcome in data set [8] was Active.
Consider `CCCCCCCCCCCCCCCC(=O)Oc1ccc2c(=O)c(-c3ccc(OC)cc3)coc2c1`, for which the outcome in [6] was inactive. Further, the inhibition result in data set [7] was “Active”. In addition, the result in data set [8] was Active.
On to `CCCCCCCCCCCCCCCCCC(=O)Oc1ccc(-c2coc3cc(OC)ccc3c2=O)cc1`, for which the Activity in data set [1] is 1.71 mmol/L; in data set [2] it was 352 g; in data set [3], 738.1 µmol/L; in data set [4], 1.35 mmol/L; in [5] it was 6 g/100 g body weight.
Regarding `CCCCCCCC/C=C\CCCCCCCC(=O)Oc1ccc2c(=O)c(-c3ccc(OC)cc3)coc2c1` [OLEOYL FORMONONETIN], the result in data set [9], in data set [10], in data set [12], in data set [14], in data set [6] and in data set [15] was Active. Also, the outcome in data set [16] and in [8] was Active. Moreover, the Activity stood at 1.31 mmol/L in [1]; 309 g in [2]; 606.7 µmol/L in data set [3]; 0.91 mmol/L in [4]; 5 g/100 g body weight in data set [5]. In addition, the LD50 in data set [11] worked out at 2160 mg/kg. Further, the inhibition result in data set [13] and in [7] was “Active” each time.
With `CCc1ccc(CCOc2ccc(CC3SC(=O)NC3=O)cc2)nc1` (stereo unspecified), the outcome in data set [6] was Active.
With `O=C(O[C@H]1[C@H](OC(=O)c2cccnc2)[C@@H](OC(=O)c2cccnc2)[C@H](OC(=O)c2cccnc2)[C@@H](OC(=O)c2cccnc2)[C@H]1OC(=O)c1cccnc1)c1cccnc1`, the outcome in data set [17], in data set [18], in [19] and in data set [20] was Active.
In the case of `CC(C)CC(N(C)C)C1(c2ccc(Cl)cc2)CCC1` (stereo unspecified) [SIBUTRAMINE], the Activity amounted to 4.3 g in data set [21]; 609.6 µmol/L in data set [22]; 301 g in data set [23]; 1.32 mmol/L in data set [24]; 0.97 mmol/L in data set [25].
`CCCCCCCC/C=C\CCCCCCCC(=O)Oc1ccc(-c2coc3cc(OC)ccc3c2=O)cc1`: the Activity is 1.65 mmol/L in data set [1]; 328 g in data set [2]; 696.3 µmol/L in [3]; 1.01 mmol/L in [4]; 5.6 g/100 g body weight in data set [5].
For `CCCCC/C=C\C/C=C\CCCCCCCC(=O)Oc1ccc2c(=O)c(-c3ccc(OC)cc3)coc2c1`, the Activity in [1] was 1.28 mmol/L; in [2] it was 307 g; in data set [3] it was 603.8 µmol/L; in [4] it was 0.99 mmol/L; in data set [5], 4.3 g/100 g body weight. For the same molecule, the result in data set [6] and in data set [8] was Active. For the same molecule, in data set [7], the inhibition entry was “Active”.
